Reference: patent US11198704B2, “Butane-tetraol-based amphiphiles and uses thereof” (Industry-University Cooperation Foundation Hanyang …, priority 2016, dated 2021)

Tests used:
[1] = Critical micelle concentration (CMC) using diphenylhexatriene (DPH) fluorescent stain; type: physicochemical; settings: aqueous solution
Description: A method of measuring the CMC is not particularly limited, but the CMC may be measured using methods well known in the related art. For example, the CMC may be measured by a fluorescence staining method using diphenylhexatriene (DPH).
(§1) Specifically, the critical micelle concentration (CMC) was measured using diphenylhexatriene (DPH) as a fluorescent stain, and the hydrodynamic radii (Rh) of the micelles formed by each preparation (1.0% by weight) were measured through a dynamic light scattering (DLS) experiment.

[2] = Hydrodynamic radius and size distribution of micelles by dynamic light scattering (DLS); type: physicochemical; settings: detergent 1.0% by weight
Description: A method of measuring the radius of the micelles is not particularly limited, but the radius of the micelles may be measured using methods well known in the related art. For example, the radius of the micelles may be measured through a dynamic light scattering (DLS) experiment.
as §1

[3] = tested on: uric acid-xanthine/H+ symporter (UapA), UapAG411VΔ1-11 GFP fusion; assay: Thermal stability of UapA solubilized by detergent, fluorescence size exclusion chromatography (FSEC); design: species or system Aspergillus nidulans; settings: detergent 1.0% by weight; 40° C. for 10 minutes
Description: A UapA protein is a uric acid-xanthine/H^+ symporter in Aspergillus nidulans. An experiment for measuring structural stability of a uric acid-xanthine/H^+ symporter (UapA) by BTMs in an aqueous solution was performed. The structural stability of UapA was measured using fluorescence size exclusion chromatography (FSEC).
Specifically, UapAG411VΔ1-11 (hereinafter referred to as ‘UapA’) was expressed as a GFP fusion protein in a Saccharomyces cerevisiae FGY217 strain, and divided into a sample buffer (20 mM Tris (pH 7.5), 150 mM NaCl, 0.03% DDM, and 0.6 mM xanthine). This procedure was performed according to the method disclosed in the article by J. Leung et al. (Mol. Membr. Biol. 2013, 30, 32-42). Membranes containing UapA were re-suspended in PBS (10 mM imidazole pH 8.0, 150 mM NaCl, and 10% glycerol), and a concentration of proteins was measured. […] 100 μL aliquots were removed from the respective tubes, and fluorescence reading on each sample was performed before and after the aliquots were ultracentrifuged at 150,000 g for 10 minutes to remove insoluble matter. Water-soluble fractions remaining under each condition were subjected to fluorescence SEC (FSEC) using a Superose 6 column (GE Healthcare) equilibrated with a buffer containing a proper preparation (DDM or BTM).

**Q.** Which “CMC” value [1] does the source give for `CCCCCCCCCCCCO[C@@H]1O[C@H](CO)[C@@H](O[C@H]2O[C@H](CO)[C@@H](O)[C@H](O)[C@H]2O)[C@H](O)[C@H]1O` [DDM, n-dodecyl-β-D-maltopyranoside, reference compound] here?
**A.** Its value is roughly 0.17 mM.

**Q.** What about the “CMC (% by weight)” value [1] of the same molecule?
**A.** Its value is roughly 0.0087 % by weight.

**Q.** What about the “Rh (nm), hydrodynamic radius of micelles” value [2] of the same molecule?
**A.** The value was 3.4 ± 0.03 nm.

**Q.** And the “UapA monodisperse peak in FSEC (extraction and structural stability)” value [3]?
**A.** Its value is “monodisperse peak with a relatively high strength”.
